Reference: patent US20070167495A1, “Pleuromutilin derivatives, process for their preparation and uses thereof” (GLAXO[…] UNLIMITED, priority 2003, published 2007)

What was measured:
[1] = system: Streptococcus pneumoniae 1629; assay: Antibacterial activity, MIC against Streptococcus pneumoniae 1629; format: cell-based
[2] = system: Staphylococccus aureus Oxford; assay: Antibacterial activity, MIC against Staphylococccus aureus Oxford; format: cell-based, Staphylococcus aureus
[3] = literature background (Egger and Reinshagen, J. Antibiotics 1976); cited from earlier work

Compound | MIC [1] | MIC [2] | antibacterial activity [3]
C=C[C@]1(C)C[C@@H](OC(=O)CSc2ccccc2C(=O)O)[C@]2(C)[C@H](C)CC[C@]3(CCC(=O)[C@H]32)[C@@H](C)[C@@H]1O [(2-carboxylato-phenylsulfanyl)-acetic acid mutilin 14-ester] | 8 micrograms per millillitre | 0.5 micrograms per millillitre | inferior in activity even to the parent substance pleuromutilin
C=C[C@]1(C)C[C@@H](O)[C@]2(C)[C@H](C)CC[C@]3(CCC(=O)[C@H]32)[C@@H](C)[C@@H]1O [Mutilin] |  |  | inactive
C=C[C@]1(C)C[C@@H](OC(=O)CO)[C@]2(C)[C@H](C)CC[C@]3(CCC(=O)[C@H]32)[C@@H](C)[C@@H]1O [Pleuromutilin] |  |  | modest antibacterial activity
(4-Carboxylato-phenylsulfanyl)-acetic acid mutilin 14-ester [Example 1] | 0.5 micrograms per millillitre | 0.125 micrograms per millillitre | 
